From the NIST ThermoML archive (doi:10.1016/j.jct.2015.07.014)

Conditions: Fluid (supercritical or subcritical phases), Buoyancy - hydrostatic balance with magnetic suspension - one sinker

O=C=O [carbon dioxide]
Conditions | mass density [kg/m3]
323.2 K, 10968 kPa | 497.981
323.24 K, 14966 kPa | 698.2
323.24 K, 18962 kPa | 770.445
323.24 K, 24961 kPa | 833.514
323.25 K, 12967 kPa | 633.58
323.25 K, 16965 kPa | 739.597
323.25 K, 22962 kPa | 815.681
323.25 K, 26959 kPa | 849.181
323.25 K, 28037 kPa | 856.967
323.26 K, 20966 kPa | 795.018
